Source: ChEMBL document CHEMBL1201862, “PubChem BioAssay data set” (2004)
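Results reflect a 48-hour exposure of cells in 96-well plates to compound at five concentrations. GI50 = concentration required for 50% inhibition of growth.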 The source made the active and inactive calls. Rule as the data show it: active = GI50 up to about 1.1 µM and inactive = higher.

Assays:
Assay in all cases: NCI-60 cell line screen, 48 h
[1] = system: Malme-3M
[2] = system: CAKI-1
[3] = system: SK-MEL-5
[4] = system: MDA-N
[5] = system: Hs-578T
[6] = system: SR
[7] = system: UACC-62
[8] = system: SK-OV-3
[9] = system: SW-620
[10] = system: A498
[11] = system: M14
[12] = system: UACC-257
[13] = system: SF-268
[14] = system: A549
[15] = system: HT-29
[16] = system: SK-MEL-2
[17] = system: HCT-15
[18] = system: NCI-H226
[19] = system: U-251
[20] = system: MDA-MB-231
[21] = system: NCI-H23
[22] = system: NCI-H522
[23] = system: EKVX
[24] = system: MDA-MB-435
[25] = system: NCI-H460
[26] = system: KM12
[27] = system: SNB-75
[28] = system: HOP-92
[29] = system: MCF7
[30] = system: COLO 205
[31] = system: SF-539
[32] = system: HL-60
[33] = system: RXF 393
[34] = system: SN12C
[35] = system: OVCAR-3
[36] = system: SK-MEL-28
[37] = system: OVCAR-8
[38] = system: T47D
[39] = system: OVCAR-4
[40] = system: HOP-62
[41] = system: SF-295
[42] = system: UO-31
[43] = system: CCRF-CEM
[44] = system: BT-549
[45] = system: SNB-19
[46] = system: NCI/ADR-RES
[47] = system: IGROV-1
[48] = system: 786-0
[49] = system: OVCAR-5
[50] = system: K562
[51] = system: HCC 2998
[52] = system: DU-145
[53] = system: PC-3
[54] = system: TK-10
[55] = system: ACHN
[56] = system: HCT-116
[57] = system: RPMI-8226
[58] = system: MOLT-4
[59] = system: LOX IMVI

**Q.** With O=C(O)c1cnc2cc(OCc3ccccc3)ccc2c1O as the compound, how does the GI50 [1] read?
**A.** 13.8 µM (inactive)

**Q.** What about the GI50 [2] of the same compound?
**A.** 20.2 µM (inactive)

**Q.** And the GI50 [3]?
**A.** 17.7 µM (inactive)

**Q.** What about the GI50 [4] of the same compound?
**A.** 17 µM (inactive)

**Q.** What about the GI50 [5] of the same compound?
**A.** 20 µM (inactive)

**Q.** What about the GI50 [6] of the same compound?
**A.** 23 µM (inactive)

**Q.** What about the GI50 [7] of the same compound?
**A.** 16.8 µM (inactive)

**Q.** And the GI50 [8]?
**A.** 22.1 µM (inactive)

**Q.** What about the GI50 [9] of the same compound?
**A.** 19.2 µM (inactive)

**Q.** What about the GI50 [10] of the same compound?
**A.** 17.6 µM (inactive)

**Q.** What about the GI50 [11] of the same compound?
**A.** 17 µM (inactive)

**Q.** And the GI50 [12]?
**A.** 24 µM (inactive)

**Q.** And the GI50 [13]?
**A.** 16 µM (inactive)

**Q.** What about the GI50 [14] of the same compound?
**A.** 19.5 µM (inactive)

**Q.** And the GI50 [15]?
**A.** 19.2 µM (inactive)

**Q.** What about the GI50 [16] of the same compound?
**A.** 18.5 µM (inactive)

**Q.** And the GI50 [17]?
**A.** 17.8 µM

**Q.** And the GI50 [18]?
**A.** 18.3 µM (inactive)

**Q.** And the GI50 [19]?
**A.** 18.6 µM (inactive)

**Q.** And the GI50 [20]?
**A.** 20.6 µM (inactive)

**Q.** What about the GI50 [21] of the same compound?
**A.** 17.9 µM (inactive)

**Q.** And the GI50 [22]?
**A.** 16.5 µM (inactive)

**Q.** What about the GI50 [23] of the same compound?
**A.** 22.8 µM (inactive)

**Q.** What about the GI50 [24] of the same compound?
**A.** 16.2 µM (inactive)

**Q.** What about the GI50 [25] of the same compound?
**A.** 19.4 µM (inactive)

**Q.** What about the GI50 [26] of the same compound?
**A.** 18.5 µM (inactive)

**Q.** What about the GI50 [27] of the same compound?
**A.** 15.7 µM (inactive)

**Q.** And the GI50 [28]?
**A.** 19.4 µM (inactive)

**Q.** And the GI50 [29]?
**A.** 20.1 µM (inactive)

**Q.** And the GI50 [30]?
**A.** 18.2 µM (inactive)

**Q.** What about the GI50 [31] of the same compound?
**A.** 19 µM (inactive)

**Q.** And the GI50 [32]?
**A.** 0.256 µM (active)

**Q.** And the GI50 [33]?
**A.** 18.3 µM (inactive)

**Q.** What about the GI50 [34] of the same compound?
**A.** 18.2 µM (inactive)

**Q.** And the GI50 [35]?
**A.** 20.7 µM (inactive)

**Q.** And the GI50 [36]?
**A.** 16 µM (inactive)

**Q.** And the GI50 [37]?
**A.** 19 µM (inactive)

**Q.** And the GI50 [38]?
**A.** 17.8 µM (inactive)

**Q.** And the GI50 [39]?
**A.** 16.6 µM (inactive)

**Q.** And the GI50 [40]?
**A.** 20.7 µM (inactive)

**Q.** And the GI50 [41]?
**A.** 19.3 µM (inactive)

**Q.** And the GI50 [42]?
**A.** 17.3 µM (inactive)

**Q.** And the GI50 [43]?
**A.** 5.37 µM (inactive)

**Q.** What about the GI50 [44] of the same compound?
**A.** 18.4 µM (inactive)

**Q.** What about the GI50 [45] of the same compound?
**A.** 17.7 µM (inactive)

**Q.** And the GI50 [46]?
**A.** 18.1 µM (inactive)

**Q.** And the GI50 [47]?
**A.** 18.3 µM (inactive)

**Q.** What about the GI50 [48] of the same compound?
**A.** 18.5 µM (inactive)

**Q.** And the GI50 [49]?
**A.** 27.3 µM (inactive)

**Q.** And the GI50 [50]?
**A.** 23.6 µM (inactive)

**Q.** And the GI50 [51]?
**A.** 18.3 µM (inactive)

**Q.** What about the GI50 [52] of the same compound?
**A.** 18 µM (inactive)

**Q.** And the GI50 [53]?
**A.** 17.1 µM (inactive)

**Q.** What about the GI50 [54] of the same compound?
**A.** 19.9 µM (inactive)

**Q.** What about the GI50 [55] of the same compound?
**A.** 18.5 µM (inactive)

**Q.** What about the GI50 [56] of the same compound?
**A.** 17.2 µM (inactive)

**Q.** What about the GI50 [57] of the same compound?
**A.** 24.8 µM (inactive)

**Q.** What about the GI50 [58] of the same compound?
**A.** 31.2 µM (inactive)

**Q.** What does the source list for CC1OC(Oc2c(-c3cc(O)c(O)c(O)c3)oc3cc(O)cc(O)c3c2=O)C(O)C(O)C1O (stereo not given)?
**A.** GI50 [1]: > 100 µM (inactive); GI50 [2]: > 100 µM (inactive); GI50 [3]: > 100 µM (inactive); GI50 [4]: 31 µM (inactive); GI50 [5]: > 100 µM (inactive); GI50 [6]: 96.8 µM (inactive); GI50 [7]: > 100 µM (inactive); GI50 [8]: > 100 µM (inactive); GI50 [9]: > 100 µM (inactive); GI50 [10]: > 100 µM (inactive); GI50 [11]: > 100 µM (inactive); GI50 [12]: > 100 µM (inactive); GI50 [13]: > 100 µM (inactive); GI50 [14]: > 100 µM (inactive); GI50 [15]: > 100 µM (inactive); GI50 [16]: > 100 µM (inactive); GI50 [17]: > 100 µM; GI50 [18]: > 100 µM (inactive); GI50 [19]: > 100 µM (inactive); GI50 [20]: 87.9 µM (inactive); GI50 [21]: > 100 µM (inactive); GI50 [22]: > 100 µM (inactive); GI50 [23]: > 100 µM (inactive); GI50 [59]: > 100 µM (inactive); GI50 [24]: 57.4 µM (inactive); GI50 [26]: > 100 µM (inactive); GI50 [27]: > 100 µM (inactive); GI50 [28]: > 100 µM (inactive); GI50 [29]: > 100 µM (inactive); GI50 [30]: > 100 µM (inactive); GI50 [31]: > 100 µM (inactive); GI50 [32]: 56.6 µM (inactive); GI50 [33]: > 100 µM (inactive); GI50 [34]: > 100 µM (inactive); GI50 [35]: > 100 µM (inactive); GI50 [36]: > 100 µM (inactive); GI50 [37]: > 100 µM (inactive); GI50 [38]: > 100 µM (inactive); GI50 [39]: > 100 µM (inactive); GI50 [40]: > 100 µM (inactive); GI50 [41]: > 100 µM (inactive); GI50 [42]: > 100 µM (inactive); GI50 [43]: > 10 µM (inactive); GI50 [44]: > 100 µM (inactive); GI50 [45]: > 100 µM (inactive); GI50 [46]: > 100 µM (inactive); GI50 [47]: > 100 µM (inactive); GI50 [48]: > 100 µM (inactive); GI50 [49]: > 100 µM (inactive); GI50 [51]: > 100 µM (inactive); GI50 [52]: > 100 µM (inactive); GI50 [53]: > 100 µM (inactive); GI50 [54]: > 100 µM (inactive); GI50 [55]: > 100 µM (inactive); GI50 [56]: > 100 µM (inactive); GI50 [57]: > 100 µM (inactive); GI50 [58]: > 100 µM (inactive)
